Like-named read-outs stand apart in the source and are kept apart here.
How the values were obtained:
[1] = source not stated; cited from earlier work
[2] = human; cited from earlier work
[3] = rats; cited from earlier work
[4] = set-up: method as in PMID 390116; conditions: whole blood concentrations, cited from earlier work
[5] = Pharmacokinetics of VPA from DBS drug levels after intravenous bolus in rats; assay type: in vivo; conditions: Sprague-Dawley, rat, dried blood spots (whole blood), iv bolus 200 mg/kg, mean ± SD; for AUC(0-t): read-out: Area under the curve (AUC0–8 h); for clearance: read-out: Clearance (CL) (converted); for half-life: read-out: HL Lambda Z (terminal elimination half-life) (converted); for MRT: read-out: Mean residence time (MRT); for Vd: read-out: Volume of distribution (Vd)
Experimental: Sprague-Dawley rats (7–8 weeks old, males: 10, females: 10) were obtained from the Comparative Medicine Center (CMC) of NUS. The rats were housed in a specific pathogen free animal facility (24 °C, 60% relative humidity) at CMC and kept on a 12-h light/dark cycle with free access to food and water. Twenty-four hours before the study, a polyethylene tubing (I.D. 0.58 mm, O.D. 0.965 mm, Becton Dickinson, Sparks, MD 21152, USA) was implanted into the right jugular vein under isoflurane anesthesia. This catheter was used for drug injection and blood sampling.
At 9 am on the study day, five rats from each gender were administered VPA intravenously at a dose of 200 mg/kg body weight (treatment group). The rest of the 5 rats from each gender were given sodium chloride 0.9% intravenously, as the placebo control group. Prior to VPA administration, blood samples (approximately 300 µL) from each of the 10 male rats and 10 female rats were collected and kept in an ice box until they were processed. After VPA/saline injection, blood samples were collected at 0.5, 2.5, 5, 8 and 24 h, respectively, from the 20 rats. The 6 time points were anticipated to capture the metabolite fluctuations in a day. Within 30 min of collection, the blood samples were spotted in duplicates of 25 µL onto Guthrie paper (UK Neonatal Screening Laboratories Network, Whatman 903®) and were left to dry in the fume hood for at least 3 h, the minimum time required for complete dryness. After drying, the DBS were punched, and the cores (6 mm) obtained were placed inside the respective Eppendorf tubes. All the acquired DBS were stored at −80 °C until processing for analysis. One DBS was used for metabolomic analysis and the other one was used for drug level quantification.
Extraction of VPA from DBS was carried out using 480 µL of acetonitrile and 20 µL of 1 N NaOH, vortexed for 1 min and followed by sonication for 5 min. The resulting extracts were centrifuged at 3500× g, 22 °C for 15 min [29, 30]. An amount of 400 µL of the supernatant were transferred into 15 mL Kimble centrifuge glass tubes for drying under a stream of nitrogen at 30 °C, followed by the removal of water using toluene and drying under nitrogen again. The dried sample was then derivatized using 50 µL MSTFA with 1% TMCS with incubation at 70 °C for an optimum period of 50 min. […] After vortexing for 1 min, 80 µL of the final volume was transferred into a 200 µL conical base inert glass insert, placed inside a 2 mL amber autosampler glass vial.
An assay for quantification of VPA concentrations in DBS was optimized in accordance to the International Conference of Harmonization (ICH) guideline. The settings were as follows: an injection temperature of 200 °C, ion source temperature of 220 °C, split ratio of 1:5, the starting temperature set at 90 °C for 0.2 min, with initial gradient ramp at 10 °C/min to 120 °C and held for 0.5 min. The temperature was then increased at 65 °C/min up to 285 °C and held for another 0.5 min. The temperature ramp was then reduced to 10 °C/min to reach a temperature of 291 °C and held for 0.2 min, before continuing at 60 °C/min to reach a final temperature of 300 °C, with a hold at 300 °C for 5 min. Selective ion monitoring (SIM) mode was applied for identifier ions with an m/z value of 201 and qualifying ions with m/z values of 145 and 129. A calibration curve was established with 6 concentrations, ranging from 0.5 µg/mL to 5 mg/mL.
Concentration-time profiles of VPA after intravenous bolus injection were fitted into a non-compartmental model (WinNonlin Professional, Version 5.1, Pharsight Corporation, Mountain View, CA, USA). The pharmacokinetic parameters obtained included the area under the DBS concentration versus time curve (AUC0–8 h), apparent volume of distribution (Vd) clearance (Cl), terminal elimination half-life (HL Lambda Z) and mean residence time (MRT) of VPA.

[6] = set-up: method as in PMID 390116; conditions: mean ± standard error; cited from earlier work
[7] = set-up: method as in PMID 3146521; conditions: female rats, 200 mg/kg oral gavage, cited from earlier work
[8] = both sexes, all rats (male and female pooled)

## C[C@H](N)C(=O)O [Alanine]
[1]
  LogP: -0.68

## CC(C)CCC[C@@H](C)[C@H]1CC[C@H]2[C@@H]3CC=C4C[C@@H](O)CC[C@]4(C)[C@H]3CC[C@]12C [Cholesterol]
[1]
  LogP: 7.11

## CCCCCCCCCCCCCCCC(=O)O [Palmitic acid]
[1]
  LogP: 6.26

## CCCC(CCC)C(=O)O [VPA, 2-propyl-pentanoic acid]
[2]
  Protein bound: 90%
[3]
  Protein bound: 64%
[4]; male rats, 150 mg/kg
  t1/2: 0.68 h
[4]; rats dosed at 15 mg/kg
  CL: 0.525 ± 0.065 L/h
  Vd: 0.155 ± 0.025 L
[5]; female rats
  AUC(0-t): 363 ± 18.7 µg·h/mL
  clearance: 2 mL/min
  half-life: 2.01 ± 0.24 h
  MRT: 1.46 ± 0.4 h
  Vd: 0.21 ± 0.01 L
[5]; male rats
  AUC(0-t): 126 ± 39.2 µg·h/mL
  clearance: 8.5 mL/min
  half-life: 1.71 ± 0.18 h
  MRT: 1.14 ± 0.28 h
  Vd: 0.82 ± 0.23 L
[5]; [8]
  AUC(0-t): 245 ± 133 µg·h/mL
  clearance: 5.33 mL/min
  half-life: 1.86 ± 0.26 h
  MRT: 1.3 ± 0.36 h
  Vd: 0.51 ± 0.36 L
[6]
  Plasma/whole blood concentrations ratio: 1.46 ± 0.03
[7]; plasma
  AUC: 1019 ± 769 µg·h/mL
  Maximum concentration (Cmax) at 0.5 h: 341 ± 18 µg/mL
[7]
  t1/2 (plasma half-life): 1.0 ± 0.2 h
